Laboratory results reported in the NIST ThermoML archive (doi:10.1016/j.jct.2016.07.012).
Numbers after ± are expanded uncertainties.

Conditions: Crystal; Adiabatic calorimetry

CCCCn1cc[n+](C)c1.F[P-](F)(F)(F)(F)F [1-butyl-3-methylimidazolium hexafluorophosphate] showed a Triple point temperature of 283.55 ± 0.05 K.
